# From US20230085307A1, “PYRIDAZINONE COMPOUND AND HERBICIDE” (NISSAN CHEMICAL CORPORATION, priority 2019, published 2023)
# Experiments:
# [1] = tested on: redroot pigweed; test: Test Example 5: herbicidal effect by foliage application, plastic box (Table 20, symbol N); assay type: in vivo, redroot pigweed (Amaranthus retroflexus)
# How it was run: (§1)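 Plants were sown into sterilized diluvial soil under about 1.5 cm cover and kept in a greenhouse at 25° C. to 30° C. Fourteen days on, foliage received an even spray of the diluted emulsion. Herbicidal or crop effect was judged three weeks afterwards.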
# [2] = tested on: barnyard grass; test: Test Example 5: herbicidal effect by foliage application, plastic box (Table 20, symbol H); assay type: in vivo, barnyard grass (Echinochloa crus-galli)
# How it was run: as §1
# [3] = tested on: windgrass; test: Test Example 5: herbicidal effect by foliage application, plastic box (Table 20, symbol L); assay type: in vivo, windgrass (Apera spica-venti)
# How it was run: as §1
# [4] = tested on: barnyard grass; test: Test Example 3: herbicidal effect by foliage application, Wagner pot (Table 18, symbol H); assay type: in vivo, barnyard grass (Echinochloa crus-galli); settings: 320 g/ha
# How it was run: (§2)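 Plants were sown in alluvial soil held under 0.1–0.5 cm standing water and grown 14 days in a greenhouse at 25–30 °C. An emulsifiable formulation, water-diluted to the set dose, was then sprayed onto the foliage, and effects were scored three weeks later using previously defined criteria.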
# [5] = tested on: Japanese bulrush; test: Test Example 1: herbicidal activity, application before weed generation under submerged conditions (Table 16, symbol B); assay type: in vivo, Japanese bulrush (Schoenoplectus juncoides)
# How it was run: (§3)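 Alluvial soil was flooded to 4 cm depth, weed seeds were sown mixed and 2.5-leaf rice seedlings were transplanted. On sowing day, the compound's emulsion, diluted in water to a set dose, was applied to the water surface. Plants grew at 25–30 °C and were scored 0–5 after three weeks.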
# [6] = tested on: late watergrass; test: Test Example 1: herbicidal activity, application before weed generation under submerged conditions (Table 16, symbol A); assay type: in vivo, late watergrass (Echinochloa oryzicola)
# How it was run: as §3
# [7] = tested on: oval-leafed pondweed; test: Test Example 1: herbicidal activity, application before weed generation under submerged conditions (Table 16, symbol C); assay type: in vivo, oval-leafed pondweed (Monochoria vaginalis)
# How it was run: as §3
# [8] = tested on: lambsquarters; test: Test Example 5: herbicidal effect by foliage application, plastic box (Table 20, symbol O); assay type: in vivo, lambsquarters (Chenopodium album)
# How it was run: as §1
# [9] = tested on: Chinese sprangletop; test: Test Example 3: herbicidal effect by foliage application, Wagner pot (Table 18, symbol D); assay type: in vivo, chinese sprangletop (Leptochloa chinensis); settings: 320 g/ha
# How it was run: as §2
# [10] = tested on: southern crabgrass; test: Test Example 5: herbicidal effect by foliage application, plastic box (Table 20, symbol F); assay type: in vivo, southern crabgrass (Digitaria ciliaris)
# How it was run: as §1
# [11] = tested on: chickweed; test: Test Example 5: herbicidal effect by foliage application, plastic box (Table 20, symbol P); assay type: in vivo, common chickweed (Stellaria media)
# How it was run: as §1
# [12] = tested on: Italian ryegrass; test: Test Example 5: herbicidal effect by foliage application, plastic box (Table 20, symbol K); assay type: in vivo, Italian ryegrass (Lolium multiflorum)
# How it was run: as §1
# [13] = tested on: velvetleaf; test: Test Example 5: herbicidal effect by foliage application, plastic box (Table 20, symbol M); assay type: in vivo, velvetleaf (Abutilon theophrasti)
# How it was run: as §1
# [14] = tested on: green foxtail; test: Test Example 5: herbicidal effect by foliage application, plastic box (Table 20, symbol G); assay type: in vivo, green foxtail (Setaria viridis)
# How it was run: as §1
# [15] = tested on: late watergrass; test: Test Example 2: herbicidal activity, application during weed generation under submerged conditions (Table 17, symbol A); assay type: in vivo, late watergrass (Echinochloa oryzicola); settings: AAH 320 g/ha; application during weed generation, submerged conditions
# How it was run: (§4)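 Herbicide emulsion, diluted with water to the chosen amount, is applied onto 4 cm floodwater over alluvial soil where the weeds were co-sown and raised at 25–30° C. Application timing: 1–2 leaves. Assessment: three weeks afterwards.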
# [16] = tested on: blackgrass; test: Test Example 5: herbicidal effect by foliage application, plastic box (Table 20, symbol J); assay type: in vivo, blackgrass (Alopecurus myosuroides)
# How it was run: as §1
# [17] = tested on: rice flat sedge; test: Test Example 3: herbicidal effect by foliage application, Wagner pot (Table 18, symbol E); assay type: in vivo, rice flat sedge (Cyperus iria); settings: 320 g/ha
# How it was run: as §2
# [18] = tested on: Japanese bulrush; test: Test Example 2: herbicidal activity, application during weed generation under submerged conditions (Table 17, symbol B); assay type: in vivo, Japanese bulrush (Schoenoplectus juncoides); settings: AAH 320 g/ha; application during weed generation, submerged conditions
# How it was run: as §4
# [19] = tested on: persian speedwell; test: Test Example 5: herbicidal effect by foliage application, plastic box (Table 20, symbol R); assay type: in vivo, Persian speedwell (Veronica persica)
# How it was run: as §1
# [20] = tested on: wild oat; test: Test Example 5: herbicidal effect by foliage application, plastic box (Table 20, symbol I); assay type: in vivo, wild oat (Avena fatua)
# How it was run: as §1
# [21] = tested on: oval-leafed pondweed; test: Test Example 2: herbicidal activity, application during weed generation under submerged conditions (Table 17, symbol C); assay type: in vivo, oval-leafed pondweed (Monochoria vaginalis); settings: AAH 320 g/ha; application during weed generation, submerged conditions
# How it was run: as §4
# [22] = amount of applied herbicide 320 g/ha, foliage application after 14-day growth, evaluated three weeks after application
# [23] = amount of applied herbicide 320 g/ha
# [24] = foliage application, AAH 320 g/ha, three weeks after application
compound,measurement,setting,value
CCCC(=O)Oc1c(C)nn(C)c(=O)c1-c1c(-c2ccc(C#N)cc2)sc2cc(Cl)c(Cl)cc12 [5-050],"Herbicidal effect by foliage application, N: redroot pigweed",[1]; [22],0 (Herbicidal rate of 5% or less (almost no effect))
same,"Herbicidal effect by foliage application, H: barnyard grass",[2]; [22],0 (Herbicidal rate of 5% or less (almost no effect))
same,"Herbicidal effect by foliage application, L: windgrass",[3]; [22],0 (Herbicidal rate of 5% or less (almost no effect))
same,herbicidal effect on barnyard grass (H),[4],2 (Herbicidal rate of 20% or more and less than 40%)
same,"Herbicidal effect, B: Japanese bulrush",[5]; [23],0 (Herbicidal rate of 5% or less (almost no effect))
same,"Herbicidal effect, A: late watergrass",[6]; [23],3 (Herbicidal rate of 40% or more and less than 70%)
same,"Herbicidal effect, C: oval-leafed pondweed",[7]; [23],0 (Herbicidal rate of 5% or less (almost no effect))
same,"Herbicidal effect by foliage application, O: lambsquarters",[8]; [22],0 (Herbicidal rate of 5% or less (almost no effect))
same,herbicidal effect on Chinese sprangletop (D),[9],4 (Herbicidal rate of 70% or more and less than 90%)
same,"Herbicidal effect by foliage application, F: southern crabgrass",[10]; [22],0 (Herbicidal rate of 5% or less (almost no effect))
same,"Herbicidal effect by foliage application, P: chickweed",[11]; [22],3 (Herbicidal rate of 40% or more and less than 70%)
same,"Herbicidal effect by foliage application, K: Italian ryegrass",[12]; [22],0 (Herbicidal rate of 5% or less (almost no effect))
same,"Herbicidal effect by foliage application, M: velvetleaf",[13]; [22],0 (Herbicidal rate of 5% or less (almost no effect))
same,"Herbicidal effect by foliage application, G: green foxtail",[14]; [22],0 (Herbicidal rate of 5% or less (almost no effect))
same,"herbicidal effect rating, A: late watergrass",[15],0 (Herbicidal rate of 5% or less (almost no effect))
same,"Herbicidal effect by foliage application, J: blackgrass",[16]; [22],0 (Herbicidal rate of 5% or less (almost no effect))
same,herbicidal effect on rice flat sedge (E),[17],0 (Herbicidal rate of 5% or less (almost no effect))
same,"herbicidal effect rating, B: Japanese bulrush",[18],2 (Herbicidal rate of 20% or more and less than 40%)
same,"Herbicidal effect by foliage application, R: persian speedwell",[19]; [22],3 (Herbicidal rate of 40% or more and less than 70%)
same,"Herbicidal effect by foliage application, I: wild oat",[20]; [22],0 (Herbicidal rate of 5% or less (almost no effect))
same,"herbicidal effect rating, C: oval-leafed pondweed",[21],0 (Herbicidal rate of 5% or less (almost no effect))
CCCC(=O)Oc1c(C)nn(C)c(=O)c1-c1c(-c2ccc([Si](C)(C)C)cc2)sc2ccccc12 [1-154],"N: redroot pigweed, herbicidal effect",[1]; [24],3 (Herbicidal rate of 40% or more and less than 70%)
same,"H: barnyard grass, herbicidal effect",[2]; [24],0 (Herbicidal rate of 5% or less (almost no effect))
same,"L: windgrass, herbicidal effect",[3]; [24],0 (Herbicidal rate of 5% or less (almost no effect))
same,"herbicidal effect on H (barnyard grass), rating 0-5",[4],2 (Herbicidal rate of 20% or more and less than 40%)
same,Herbicidal effect on B: Japanese bulrush (grade 0-5),[5]; 320 g/ha applied herbicide,0 (Herbicidal rate of 5% or less (almost no effect))
same,Herbicidal effect on A: late watergrass (grade 0-5),[6]; 320 g/ha applied herbicide,2 (Herbicidal rate of 20% or more and less than 40%)
same,Herbicidal effect on C: oval-leafed pondweed (grade 0-5),[7]; 320 g/ha applied herbicide,0 (Herbicidal rate of 5% or less (almost no effect))
same,"O: lambsquarters, herbicidal effect",[8]; [24],4 (Herbicidal rate of 70% or more and less than 90%)
same,"herbicidal effect on D (Chinese sprangletop), rating 0-5",[9],3 (Herbicidal rate of 40% or more and less than 70%)
same,"F: southern crabgrass, herbicidal effect",[10]; [24],0 (Herbicidal rate of 5% or less (almost no effect))
same,"P: chickweed, herbicidal effect",[11]; [24],0 (Herbicidal rate of 5% or less (almost no effect))
same,"K: Italian ryegrass, herbicidal effect",[12]; [24],0 (Herbicidal rate of 5% or less (almost no effect))
same,"M: velvetleaf, herbicidal effect",[13]; [24],0 (Herbicidal rate of 5% or less (almost no effect))
same,"G: green foxtail, herbicidal effect",[14]; [24],0 (Herbicidal rate of 5% or less (almost no effect))
same,"herbicidal effect rating, A: late watergrass",[15],0 (Herbicidal rate of 5% or less (almost no effect))
same,"J: blackgrass, herbicidal effect",[16]; [24],0 (Herbicidal rate of 5% or less (almost no effect))
same,"herbicidal effect on E (rice flat sedge), rating 0-5",[17],2 (Herbicidal rate of 20% or more and less than 40%)
same,"herbicidal effect rating, B: Japanese bulrush",[18],2 (Herbicidal rate of 20% or more and less than 40%)
same,"R: persian speedwell, herbicidal effect",[19]; [24],4 (Herbicidal rate of 70% or more and less than 90%)
same,"I: wild oat, herbicidal effect",[20]; [24],0 (Herbicidal rate of 5% or less (almost no effect))
same,"herbicidal effect rating, C: oval-leafed pondweed",[21],0 (Herbicidal rate of 5% or less (almost no effect))
